Experiments:
[1] = tested on: cellular content of cholesterol; type: cell-based
EBOVpp = type: cell-based, Ebola virus
EBOV-GP/HIV-luc = type: cell-based, Ebola virus

Q: `CCN(CC)CCO[C@H]1CC[C@@]2(C)C(=CC[C@@H]3[C@@H]2CC[C@]2(C)C(=O)CC[C@@H]32)C1` [U18666A] was tested. Which “cellular content of cholesterol” value [1] did it give?
A: The value was “cholesterol accumulation”.

Q: How did the “inhibitory effect by time of drug addition” value (EBOVpp) turn out when `O=C1Nc2ccc(Cl)cc2[C@@](C#CC2CC2)(C(F)(F)F)O1` [efavirenz] was run?
A: The value was “maintained its inhibitory effect up to 8 hpi”.

Q: How did the “effect on uptake of viral genomic RNA (virus binding to the cell)” value (EBOV-GP/HIV-luc) turn out when heparin was run?
A: The value was “marked inhibition”.

Source: paper PMC9764067 (Acta Pharmaceutica Sinica. B, 2022)
